Structures are written as SMILES.

This note sets out measurements from paper PMC6320874, “Inhibitory Effect of Naphthoquinone-Tryptophan Hybrid towards Aggregation of PAP f39 Semen Amyloid” (Molecules, 2018).

Experiment [1] addresses T1, PAP f39 (PAP248-286) (Homo sapiens, UniProt P15309).
T1 construct: gene ACP3; synthetic 39-residue peptide fragment 248-286 (GL Biochem), N-terminal Gly, C-terminal Tyr, HFIP-pretreated monomer; 2L3H is only the docking structure of this peptide
T1 sequence (P15309 248-286): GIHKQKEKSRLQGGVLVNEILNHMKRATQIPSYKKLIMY
The experiment can be described thus: ThT fluorescence aggregation assay. It is filed as biochemical. The following applies: PBS pH 7.3, 37 °C, 1200 rpm, 96 h; 0.44 mM PAP f39, 0.022 mM NQTrp; inhibition of fibril formation.

In experiment [2] the target is T1, PAP f39 (PAP248-286). The experiment can be described thus: isothermal titration calorimetry. It is filed as binding. Background: ITC needs no label: the signal is the heat of the interaction.

For orientation: Kd means a measure of binding affinity in units of concentration. As to `O=C1C=C(N[C@@H](Cc2c[nH]c3ccccc23)C(=O)O)C(=O)c2ccccc21` [NQTrp], the “% amyloid inhibition at 20:1 (PAP f39:NQTrp)” value in experiment [1] is listed as ~ 70%. In experiment [2], the Kd was found to be 5.94 ± 1.26 µM.
